This note sets out measurements from patent US10105357B2, “Indication of antibiotic drugs for preparation of cancer inhibition pharmaceutical composition” (LAUNX BIOMEDICAL CO., LTD., priority 2014, dated 2018).

Counter-ions that a name gives are not always drawn. Like-named read-outs stand apart in the source and are kept apart here.

Assay type in all cases: cell-based, human
Data set [1] relates to HepG2 (Hepatocellular Carcinoma). Description: Cell viability analysis, hepatic cancer HepG2. Particulars: for viability at 10 µM: Homo sapiens, HepG2, 72 h.
The subject of data set [2] is A549 (Lung Adenocarcinoma). Description: Cell viability analysis, lung cancer A549. Conditions: for viability at 10 µM: Homo sapiens, A549, 72 h.
Another data set deals with cancer cell lines. Description: Cell viability analysis (WST-1) on cancer cell lines. Conditions: drug 10 μM, 72 hours, WST-1; Table 3. In general terms: Tetrazolium dyes change colour on reduction, which living cells bring about.
Data set [3] has as its system LoVo (Colorectal Adenocarcinoma). Description: Cell viability analysis, colon cancer LoVo. Conditions: for viability at 10 µM: Homo sapiens, LoVo, 72 h, read-out: cell viability (survival rate), LoVo, drug 10 μM, 72 hours, WST-1, OD450 nm.
Data set [4] deals with A375 (Amelanotic Melanoma). Description: Cell viability analysis, skin cancer A375. Particulars: for viability at 10 µM: Homo sapiens, A-375, 72 h.
The subject of data set [5] is HL-60 (Acute Promyelocytic Leukemia). Description: Cell viability analysis, leukemia HL-60. Conditions: for viability at 10 µM: Homo sapiens, HL-60, 72 h.
For data set [6], the system named is HeLa (Cervix Adenocarcinoma). Description: Cell viability analysis, cervical cancer HeLa. Particulars: for viability at 10 µM: Homo sapiens, HeLa, 72 h.
Data set [7] deals with MKN-45 (Gastric Adenocarcinoma). Description: Cell viability analysis, gastric cancer MKN-45. Particulars: for viability at 10 µM: Homo sapiens, MKN-45, 72 h.
For data set [8], the system named is MCF7 (Mammary Gland, Adenocarcinoma). Description: Cell viability analysis, breast cancer MCF7. Conditions: for viability at 10 µM: Homo sapiens, MCF7, 72 h.
The subject of data set [9] is HI650 (Lung Adenocarcinoma). Description: Cell viability analysis, lung cancer HI650. Conditions: for viability at 10 µM: Homo sapiens, NCI-H1650, 72 h.
The subject of data set [10] is TSGH-8301 (Urinary Bladder Carcinoma). Description: Cell viability analysis, bladder cancer TSGH-8301. Particulars: Homo sapiens, 72 h.
In data set [11] the test system is AGS (Gastric Adenocarcinoma). Description: Cell viability analysis, gastric cancer AGS. Particulars: for viability at 10 µM: Homo sapiens, 72 h.
Data set [12] concerns PC3 (p53−) (Prostate Adenocarcinoma). Description: Cell viability analysis, prostate cancer PC3. Conditions: for viability at 10 µM: Homo sapiens, 72 h.
The mark [13] stands for this setting: read-out: cell viability (survival rate), HepG2, drug 10 μM, 72 hours, WST-1, OD450 nm.
The mark [14] stands for this setting: read-out: cell viability (survival rate), A549, drug 10 μM, 72 hours, WST-1, OD450 nm.
Setting [15] is: read-out: cell viability (survival rate), HL-60, drug 10 μM, 72 hours, WST-1, OD450 nm.
The mark [16] stands for this setting: read-out: cell viability (survival rate), HeLa, drug 10 μM, 72 hours, WST-1, OD450 nm.
Setting [17] is: read-out: cell viability (survival rate), MKN-45, drug 10 μM, 72 hours, WST-1, OD450 nm.
The mark [18] stands for this setting: read-out: cell viability (survival rate), MCF7, drug 10 μM, 72 hours, WST-1, OD450 nm.
Setting [19] is: read-out: cell viability (survival rate), H1650, drug 10 μM, 72 hours, WST-1, OD450 nm.
Setting [20] is: read-out: cell viability (survival rate), TSGH, drug 10 μM, 72 hours, WST-1, OD450 nm.
The mark [21] stands for this setting: read-out: cell viability (survival rate), AGS, drug 10 μM, 72 hours, WST-1, OD450 nm.
Where [22] appears, read: read-out: cell viability (survival rate), PC3, drug 10 μM, 72 hours, WST-1, OD450 nm.
[23] abbreviates: drug 10 μM, 72 hours, WST-1, OD450 nm.
The mark [24] stands for this setting: read-out: cell viability (survival rate), A375, drug 10 μM, 72 hours, WST-1, OD450 nm.

One may read the viability as a read-out of living cells in per cent, often relative to untreated cells. As to `NCC[C@H](O)C(=O)N[C@@H]1C[C@H](N)[C@@H](O[C@H]2O[C@H](CN)[C@@H](O)[C@H](O)[C@H]2O)[C@H](O)[C@H]1O[C@H]1O[C@H](CO)[C@@H](O)[C@H](N)[C@H]1O` [Amikacin hydrate], the viability at 10 µM came out at 88.4% in data set [1] (drug 10 μM, 72 hours, WST-1, OD450 nm, read-out: cell viability (survival rate), HepG2); 111% in [2] (drug 10 μM, 72 hours, WST-1, OD450 nm, read-out: cell viability (survival rate), A549); 99% in [3]; 87.7% in [4] (drug 10 μM, 72 hours, WST-1, OD450 nm, read-out: cell viability (survival rate), A375); 108% in data set [5] (drug 10 μM, 72 hours, WST-1, OD450 nm, read-out: cell viability (survival rate), HL-60); 96.3% in [6] (drug 10 μM, 72 hours, WST-1, OD450 nm, read-out: cell viability (survival rate), HeLa). Further, the viability at 10 µM in [7] (drug 10 μM, 72 hours, WST-1, OD450 nm, read-out: cell viability (survival rate), MKN-45) was determined as 104%; in [8] (drug 10 μM, 72 hours, WST-1, OD450 nm, read-out: cell viability (survival rate), MCF7), 81.4%; in [9] (drug 10 μM, 72 hours, WST-1, OD450 nm, read-out: cell viability (survival rate), H1650) it was 87.7%; in data set [10] (drug 10 μM, 72 hours, WST-1, OD450 nm, read-out: cell viability (survival rate), TSGH) it was 138%; in data set [11] (drug 10 μM, 72 hours, WST-1, OD450 nm, read-out: cell viability (survival rate), AGS), 85.8%; in data set [12] (drug 10 μM, 72 hours, WST-1, OD450 nm, read-out: cell viability (survival rate), PC3) it was 102%. In addition, in the data set with cancer cell lines, the “inhibition effect on different cancer cell lines” value was “significant inhibition effect”.

On to `CC[C@H]1OC(=O)[C@H](C)[C@@H](O[C@H]2C[C@@](C)(OC)[C@@H](O)[C@H](C)O2)[C@H](C)[C@@H](O[C@@H]2O[C@H](C)C[C@H](N(C)C)[C@H]2O)[C@](C)(O)C[C@@H](C)C(=O)[C@H](C)[C@@H](O)[C@]1(C)O` [Erythromycin (E-Mycin), Erythromycin], for which the viability at 10 µM in data set [1] (setting [13]) amounted to 93.5%; in data set [2] (setting [14]), 63.8%; in data set [3], 85.5%; in [5] (setting [15]), 111%; in [6] (setting [16]), 93%; in data set [7] (setting [17]), 53.2%. Also, the viability at 10 µM in [8] (setting [18]) is 45.2%; in data set [9] (setting [19]) it was 90.4%; in data set [10] (setting [20]), 42.6%; in [11] (setting [21]) it was 27.7%; in data set [12] (setting [22]), 86%. The “inhibition effect on different cancer cell lines” value with cancer cell lines is given as “significant inhibition effect”.

As for Tenofovir [Tenofovir (Viread)], in data set [1] (setting [23]), the “cell viability (survival rate), HepG2” value is on record as 99.0. Further, the “cell viability (survival rate), A549” value in data set [2] (setting [23]) is reported as 47.7. The “inhibition effect on different cancer cell lines” value in the data set on cancer cell lines was “significant inhibition effect”. Moreover, the “cell viability (survival rate), LoVo” value in data set [3] (setting [23]) was found to be 85.9. Besides, in data set [4] (setting [23]), the “cell viability (survival rate), A375” value stood at 60.6. The “cell viability (survival rate), HL-60” value in data set [5] (setting [23]) amounted to 97.6. The “cell viability (survival rate), HeLa” value in data set [6] (setting [23]) stood at 95.0. Also, in [7] (setting [23]), the “cell viability (survival rate), MKN-45” value is 70.9. Moreover, the “cell viability (survival rate), MCF7” value in data set [8] (setting [23]) is on record as 71.1. Besides, the “cell viability (survival rate), H1650” value in data set [9] (setting [23]) came to 55.6. The “cell viability (survival rate), AGS” value in data set [11] (setting [23]) stood at 67.0. In addition, in data set [12] (setting [23]), the “cell viability (survival rate), PC3” value is recorded as 68.1.

As to `O=C(N[C@H](CO)[C@H](O)c1ccc([N+](=O)[O-])cc1)C(Cl)Cl` [Chloramphenicol (Chloromycetin), Chloramphenicol], the viability at 10 µM is 93.6% in data set [1] (setting [13]); 96.3% in data set [2] (setting [14]); 114% in data set [4] (setting [24]); 105% in [5] (setting [15]); 85% in data set [6] (setting [16]); 66.8% in data set [7] (setting [17]). The viability at 10 µM was 89.1% in [8] (setting [18]); 75.6% in [9] (setting [19]); 83.5% in [10] (setting [20]); 90.6% in data set [11] (setting [21]); 120% in data set [12] (setting [22]). Also, the “inhibition effect on different cancer cell lines” value in the data set on cancer cell lines is given as “significant inhibition effect”.

With `CN1[C@@H]2CC[C@H]1C[C@@H](OC(c1ccccc1)c1ccccc1)C2` [Benztropine mesylate], the viability at 10 µM worked out at 86% in data set [1] (setting [13]); 68.2% in data set [2] (setting [14]); 81.4% in [3]; 67.5% in data set [4] (setting [24]); 81.1% in data set [5] (setting [15]); 95.3% in [6] (setting [16]). For the same compound, the viability at 10 µM in data set [7] (setting [17]) is 89.4%; in data set [8] (setting [18]), 63.3%; in data set [9] (setting [19]) it was 91.7%; in data set [11] (setting [21]) it was 83%; in data set [12] (setting [22]), 75.3%. The “inhibition effect on different cancer cell lines” value in the data set with cancer cell lines is listed as “significant inhibition effect”.

Turning to `CCCN1CCCC[C@H]1C(=O)Nc1c(C)cccc1C` [Ropivacaine HCl], the viability at 10 µM in [1] (setting [13]) stood at 98%; in data set [2] (setting [14]), 118%; in [3] it was 89.7%; in [4] (setting [24]), 71.2%; in data set [5] (setting [15]), 81.3%; in [6] (setting [16]), 126%. Further, the viability at 10 µM in data set [7] (setting [17]) came out at 132%; in data set [8] (setting [18]), 99.2%; in data set [9] (setting [19]), 92.4%; in [11] (setting [21]) it was 64.3%; in data set [12] (setting [22]), 110%. Besides, in the data set with cancer cell lines, the “inhibition effect on different cancer cell lines” value is given as “significant inhibition effect”.

`Nc1nc2c(ncn2COCCO)c(=O)[nH]1` [Acyclovir (Aciclovir), Acyclovir]: the viability at 10 µM in data set [1] (setting [13]) worked out at 104%; in data set [2] (setting [14]), 126%; in [3], 66.3%; in data set [4] (setting [24]), 112%; in data set [5] (setting [15]) it was 91.6%; in data set [6] (setting [16]) it was 87.2%. For the same compound, the viability at 10 µM in [7] (setting [17]) came to 55.9%; in data set [8] (setting [18]), 75.8%; in [10] (setting [20]) it was 107%; in data set [11] (setting [21]), 77.1%; in [12] (setting [22]) it was 102%. Also, in the data set on cancer cell lines, the “inhibition effect on different cancer cell lines” value is “significant inhibition effect”.

Turning to `CC(=O)O[C@]1(C(C)=O)CC[C@H]2[C@@H]3C=C(C)C4=CC(=O)CC[C@]4(C)[C@H]3CC[C@@]21C` [Megestrol Acetate], the viability at 10 µM in data set [1] (setting [13]) was determined as 88.9%; in data set [3], 109%; in data set [4] (setting [24]), 80.8%; in data set [5] (setting [15]) it was 94%; in data set [6] (setting [16]) it was 78.6%; in data set [7] (setting [17]), 74.8%. The viability at 10 µM in data set [8] (setting [18]) was determined as 110%; in [9] (setting [19]), 56%; in data set [10] (setting [20]), 74.3%; in [11] (setting [21]), 84.7%; in data set [12] (setting [22]), 80.3%. For the same compound, the “inhibition effect on different cancer cell lines” value in the data set on cancer cell lines is on record as “significant inhibition effect”.

`CS(=O)(=O)c1ccc([C@@H](O)[C@@H](CF)NC(=O)C(Cl)Cl)cc1` [Florfenicol]: the viability at 10 µM in data set [1] (setting [13]) came to 161%; in data set [2] (setting [14]), 67.8%; in data set [3], 92.9%; in data set [4] (setting [24]), 88.4%; in data set [5] (setting [15]), 109%; in [6] (setting [16]), 95.1%. The viability at 10 µM in data set [7] (setting [17]) amounted to 117%; in data set [8] (setting [18]) it was 123%; in data set [9] (setting [19]), 87%; in [10] (setting [20]), 86.9%; in [12] (setting [22]), 102%. Also, the “inhibition effect on different cancer cell lines” value with cancer cell lines is “significant inhibition effect”.
